Experimental data from ChEMBL document CHEMBL1144807, “Ciliatamides A-C, bioactive lipopeptides from the deep-sea sponge Aaptos ciliata” (J Nat Prod, 2008).
≈ marks a conversion by molar mass, not a printed value. Calls of active or inactive are those of the source. The rule behind the calls is not given here.

Key:
HeLa = experiment: Cytotoxicity against human HeLa cells lines by MTT assay; format: cell-based
Leishmania major = experiment: Antileishmanial activity against Leishmania major egfp promastigotes at 10 ug/ml; format: functional; conditions: for inhibition of growth at 10 µg/mL: read-out: GI

`C=CCCCCCCCC(=O)N(C)[C@@H](Cc1ccccc1)C(=O)N[C@H]1CCCCNC1=O` [CILIATAMIDES A] showed an IC50 (HeLa) of 50 µg/mL (≈ 113 µM) and an inhibition of growth at 10 µg/mL (Leishmania major) of 50%.
With `CCCCCCCC(=O)N(C)[C@@H](Cc1ccccc1)C(=O)N[C@H]1CCCCNC1=O` [CILIATAMIDES B] the IC50 (HeLa) was 4.5 µg/mL (≈ 10.8 µM) and the inhibition of growth at 10 µg/mL (Leishmania major) was 45.5%.
`C=CCCCCCCCC(=O)N(C)[C@@H](Cc1ccccc1)C(=O)N[C@H]1CCCNC1=O` [CILIATAMIDES C] was tested, and the IC50 (HeLa) was 50 µg/mL (≈ 117 µM) and the Activity (Leishmania major) was “inactive”.
